US10227344B2, “CK2 inhibitors, compositions and methods thereof” (Polaris Pharmaceuticals, Inc., priority 2016, dated 2019)

How the values were obtained:
Type in all cases: cell-based
[1] = system: H23; experiment: Cancer cell panel, cell viability (resazurin): NSCLC, H23; conditions: 72 hours, labelled drug combined with Example 3
Protocol: (§1) Cells were plated in 96-well plates and treated for 72 hours with a serially diluted CK2 inhibitor or anti-cancer drug or their combination. The suspension cell lines were treated right after plating, while the adherent cells were allowed to attach overnight prior to the start of the treatment.
(§2) Cell viability was determined by adding resazurin to cell cultures and measuring fluorescence with a plate reader. Relative cell viability was calculated by dividing the cell viability signal from a test sample by that of a non-treated control. […] Bliss Independence and Highest Single Agent models were used to determine if there is synergy, additivity or antagonism between the CK2 inhibitor and an anti-cancer drug.

[2] = system: MDA-MB-157; experiment: Cancer cell panel, cell viability (resazurin): Breast, MDA-MB-157; conditions: MDA-MB-157 (Breast), 72 hours; labelled drug combined with Example 3
[3] = system: MDA-MB-453; experiment: Cancer cell panel, cell viability (resazurin): Breast, MDA-MB-453; conditions: MDA-MB-453 (Breast), 72 hours; labelled drug combined with Example 3
Protocol: as §1, §2

[4] = system: Caki-2; experiment: Cancer cell panel, cell viability (resazurin): Renal, Caki-2; conditions: Caki-2 (Renal), 72 hours; labelled drug combined with Example 3
[5] = system: EOL-1; experiment: Cancer cell panel, cell viability (resazurin): Leukemia, EOL-1; conditions: EOL-1 (Leukemia), 72 hours; labelled drug combined with Example 3
[6] = system: HL60; experiment: Cancer cell panel, cell viability (resazurin): Leukemia, HL60; conditions: 72 hours, labelled drug combined with Example 3
[7] = system: HT29; experiment: Cancer cell panel, cell viability (resazurin): Colon, HT29; conditions: 72 hours, labelled drug combined with Example 3
[8] = system: U266; experiment: Cancer cell panel, cell viability (resazurin): multiple myeloma, U266; conditions: 72 hours, labelled drug combined with Example 3
Protocol: as §1, §2

[9] = system: H2122; experiment: Cancer cell panel, cell viability (resazurin): NSCLC, H2122; conditions: 72 hours, labelled drug combined with Example 3
[10] = system: Daudi; experiment: Cancer cell panel, cell viability (resazurin): Burkitt's Lymphoma, Daudi; conditions: 72 hours, labelled drug combined with Example 3
[11] = system: K562; experiment: Cancer cell panel, cell viability (resazurin): Leukemia, K562; conditions: 72 hours, labelled drug combined with Example 3
[12] = system: BxPC3; experiment: Cancer cell panel, cell viability (resazurin): Pancreatic, BxPC3; conditions: 72 hours, labelled drug combined with Example 3
[13] = system: BT-20; experiment: Cancer cell panel, cell viability (resazurin): Breast, BT-20; conditions: BT-20 (Breast), 72 hours; labelled drug combined with Example 3
[14] = system: A375; experiment: Cancer cell panel, cell viability (resazurin): Melanoma, A375; conditions: 72 hours, labelled drug combined with Example 3
[15] = system: PC3; experiment: Cancer cell panel, cell viability (resazurin): Prostate, PC3; conditions: 72 hours, labelled drug combined with Example 3
[16] = system: HCT116; experiment: Cancer cell panel, cell viability (resazurin): Colon, HCT116; conditions: 72 hours, labelled drug combined with Example 3
[17] = system: BT-474; experiment: Cancer cell panel, cell viability (resazurin): Breast, BT-474; conditions: BT-474 (Breast), 72 hours; labelled drug combined with Example 3
[18] = system: Ramos; experiment: Cancer cell panel, cell viability (resazurin): Burkitt's Lymphoma, Ramos; conditions: 72 hours, labelled drug combined with Example 3
[19] = system: OVCAR-3; experiment: Cancer cell panel, cell viability (resazurin): Ovarian, OVCAR-3; conditions: OVCAR-3 (Ovarian), 72 hours; labelled drug combined with Example 3
[20] = system: MCF7; experiment: Cancer cell panel, cell viability (resazurin): Breast, MCF7; conditions: 72 hours, labelled drug combined with Example 3
Protocol: as §1, §2

[21] = system: SKOV-3; experiment: Cancer cell panel, cell viability (resazurin): Ovarian, SKOV-3; conditions: SKOV-3 (Ovarian), 72 hours; labelled drug combined with Example 3
[22] = system: Colo205; experiment: Cancer cell panel, cell viability (resazurin): Colon, Colo205; conditions: 72 hours, labelled drug combined with Example 3
Protocol: as §1, §2

[23] = system: Caov-3; experiment: Cancer cell panel, cell viability (resazurin): Ovarian, Caov-3; conditions: Caov-3 (Ovarian), 72 hours; labelled drug combined with Example 3
Protocol: as §1, §2

[24] = system: SkBr-3; experiment: Cancer cell panel, cell viability (resazurin): Breast, SkBr-3; conditions: SkBr-3 (Breast), 72 hours; labelled drug combined with Example 3
[25] = system: Panc-1; experiment: Cancer cell panel, cell viability (resazurin): Pancreatic, Panc-1; conditions: Panc-1 (Pancreatic), 72 hours; labelled drug combined with Example 3
Protocol: as §1, §2

[26] = system: T47D; experiment: Cancer cell panel, cell viability (resazurin): Breast, T47D; conditions: 72 hours, labelled drug combined with Example 3
Protocol: as §1, §2

[27] = system: A549; experiment: Cancer cell panel, cell viability (resazurin): NSCLC, A549; conditions: 72 hours, labelled drug combined with Example 3
[28] = system: H1299; experiment: Cancer cell panel, cell viability (resazurin): NSCLC, H1299; conditions: 72 hours, labelled drug combined with Example 3
Protocol: as §1, §2

[29] = system: WM-115; experiment: Cancer cell panel, cell viability (resazurin): Melanoma, WM-115; conditions: WM-115 (Melanoma), 72 hours; labelled drug combined with Example 3
Protocol: as §1, §2

[30] = system: DLD-1; experiment: Cancer cell panel, cell viability (resazurin): Colon, DLD-1; conditions: DLD-1 (Colon), 72 hours; labelled drug combined with Example 3
[31] = system: Mia-Paca-2; experiment: Cancer cell panel, cell viability (resazurin): Pancreatic, Mia-Paca-2; conditions: Mia-Paca-2 (Pancreatic), 72 hours; labelled drug combined with Example 3
Protocol: as §1, §2

[32] = system: A2780; experiment: Cancer cell panel, cell viability (resazurin): Ovarian, A2780; conditions: 72 hours, labelled drug combined with Example 3
[33] = system: H1975; experiment: Cancer cell panel, cell viability (resazurin): NSCLC, H1975; conditions: 72 hours, labelled drug combined with Example 3
[34] = system: Raji; experiment: Cancer cell panel, cell viability (resazurin): Burkitt's Lymphoma, Raji; conditions: 72 hours, labelled drug combined with Example 3
[35] = system: ACHN; experiment: Cancer cell panel, cell viability (resazurin): Renal, ACHN; conditions: 72 hours, labelled drug combined with Example 3
[36] = system: LoVo; experiment: Cancer cell panel, cell viability (resazurin): Colon, LoVo; conditions: 72 hours, labelled drug combined with Example 3
[37] = system: H460; experiment: Cancer cell panel, cell viability (resazurin): NSCLC, H460; conditions: 72 hours, labelled drug combined with Example 3
[38] = system: MDA-MB-231; experiment: Cancer cell panel, cell viability (resazurin): Breast, MDA-MB-231; conditions: MDA-MB-231 (Breast), 72 hours; labelled drug combined with Example 3
Protocol: as §1, §2

[39] = system: Caki-1; experiment: Cancer cell panel, cell viability (resazurin): Renal, Caki-1; conditions: Caki-1 (Renal), 72 hours; labelled drug combined with Example 3
[40] = system: SK-MEL-24; experiment: Cancer cell panel, cell viability (resazurin): Melanoma, SK-MEL-24; conditions: SK-MEL-24 (Melanoma), 72 hours; labelled drug combined with Example 3
[41] = system: RPMI8226; experiment: Cancer cell panel, cell viability (resazurin): multiple myeloma, RPMI8226; conditions: 72 hours, labelled drug combined with Example 3

CC(C)C[C@H](NC(=O)[C@H](Cc1ccccc1)NC(=O)c1cnccn1)B(O)O [Bortezomib, bortezomib]
synergy, additivity or antagonism of the combination of Example 3 with the anti-cancer drug [1]: + (Additive relative to each agent alone (CI = 0.9-1 by Bliss Independence Model and <0.9 by Highest Single Agent Model)) | synergy, additivity or antagonism of the combination of Example 3 with the anti-cancer drug [2]: + + + (Synergy relative to each agent alone (CI = 0.4-0.74 by Bliss Independence Model)) | synergy, additivity or antagonism of the combination of Example 3 with the anti-cancer drug [3]: + (Additive relative to each agent alone (CI = 0.9-1 by Bliss Independence Model and <0.9 by Highest Single Agent Model)) | synergy, additivity or antagonism of the combination of Example 3 with the anti-cancer drug [4]: + (Additive relative to each agent alone (CI = 0.9-1 by Bliss Independence Model and <0.9 by Highest Single Agent Model)) | synergy, additivity or antagonism of the combination of Example 3 with the anti-cancer drug [5]: + + (Slight synergy relative to each agent alone (CI = 0.75-0.9 by Bliss Independence Model)) | synergy, additivity or antagonism of the combination of Example 3 with the anti-cancer drug [6]: + (Additive relative to each agent alone (CI = 0.9-1 by Bliss Independence Model and <0.9 by Highest Single Agent Model)) | synergy, additivity or antagonism of the combination of Example 3 with the anti-cancer drug [7]: + (Additive relative to each agent alone (CI = 0.9-1 by Bliss Independence Model and <0.9 by Highest Single Agent Model)) | synergy, additivity or antagonism of the combination of Example 3 with the anti-cancer drug [8]: + (Additive relative to each agent alone (CI = 0.9-1 by Bliss Independence Model and <0.9 by Highest Single Agent Model)) | synergy, additivity or antagonism of the combination of Example 3 with the anti-cancer drug [9]: + (Additive relative to each agent alone (CI = 0.9-1 by Bliss Independence Model and <0.9 by Highest Single Agent Model)) | synergy, additivity or antagonism of the combination of Example 3 with the anti-cancer drug [10]: + (Additive relative to each agent alone (CI = 0.9-1 by Bliss Independence Model and <0.9 by Highest Single Agent Model)) | synergy, additivity or antagonism of the combination of Example 3 with the anti-cancer drug [11]: + (Additive relative to each agent alone (CI = 0.9-1 by Bliss Independence Model and <0.9 by Highest Single Agent Model)) | synergy, additivity or antagonism of the combination of Example 3 with the anti-cancer drug [12]: + + + (Synergy relative to each agent alone (CI = 0.4-0.74 by Bliss Independence Model)) | synergy, additivity or antagonism of the combination of Example 3 with the anti-cancer drug [13]: + + (Slight synergy relative to each agent alone (CI = 0.75-0.9 by Bliss Independence Model)) | synergy, additivity or antagonism of the combination of Example 3 with the anti-cancer drug [14]: + (Additive relative to each agent alone (CI = 0.9-1 by Bliss Independence Model and <0.9 by Highest Single Agent Model)) | synergy, additivity or antagonism of the combination of Example 3 with the anti-cancer drug [15]: + (Additive relative to each agent alone (CI = 0.9-1 by Bliss Independence Model and <0.9 by Highest Single Agent Model)) | synergy, additivity or antagonism of the combination of Example 3 with the anti-cancer drug [16]: + + (Slight synergy relative to each agent alone (CI = 0.75-0.9 by Bliss Independence Model)) | synergy, additivity or antagonism of the combination of Example 3 with the anti-cancer drug [17]: + + (Slight synergy relative to each agent alone (CI = 0.75-0.9 by Bliss Independence Model)) | synergy, additivity or antagonism of the combination of Example 3 with the anti-cancer drug [18]: + (Additive relative to each agent alone (CI = 0.9-1 by Bliss Independence Model and <0.9 by Highest Single Agent Model)) | synergy, additivity or antagonism of the combination of Example 3 with the anti-cancer drug [19]: + (Additive relative to each agent alone (CI = 0.9-1 by Bliss Independence Model and <0.9 by Highest Single Agent Model)) | synergy, additivity or antagonism of the combination of Example 3 with the anti-cancer drug [20]: − − (Antagonistic relative to each agent alone (CI = 1.2-1.49 by Highest Single Agent Model)) | synergy, additivity or antagonism of the combination of Example 3 with the anti-cancer drug [21]: + + + (Synergy relative to each agent alone (CI = 0.4-0.74 by Bliss Independence Model)) | synergy, additivity or antagonism of the combination of Example 3 with the anti-cancer drug [22]: − (Slightly antagonistic relative to each agent alone (CI = 1.1-1.2 by Highest Single Agent Model)) | synergy, additivity or antagonism of the combination of Example 3 with the anti-cancer drug [23]: + (Additive relative to each agent alone (CI = 0.9-1 by Bliss Independence Model and <0.9 by Highest Single Agent Model)) | synergy, additivity or antagonism of the combination of Example 3 with the anti-cancer drug [24]: + (Additive relative to each agent alone (CI = 0.9-1 by Bliss Independence Model and <0.9 by Highest Single Agent Model)) | synergy, additivity or antagonism of the combination of Example 3 with the anti-cancer drug [25]: + (Additive relative to each agent alone (CI = 0.9-1 by Bliss Independence Model and <0.9 by Highest Single Agent Model)) | synergy, additivity or antagonism of the combination of Example 3 with the anti-cancer drug [26]: + (Additive relative to each agent alone (CI = 0.9-1 by Bliss Independence Model and <0.9 by Highest Single Agent Model)) | synergy, additivity or antagonism of the combination of Example 3 with the anti-cancer drug [27]: + + + (Synergy relative to each agent alone (CI = 0.4-0.74 by Bliss Independence Model)) | synergy, additivity or antagonism of the combination of Example 3 with the anti-cancer drug [28]: + (Additive relative to each agent alone (CI = 0.9-1 by Bliss Independence Model and <0.9 by Highest Single Agent Model)) | synergy, additivity or antagonism of the combination of Example 3 with the anti-cancer drug [29]: + + (Slight synergy relative to each agent alone (CI = 0.75-0.9 by Bliss Independence Model)) | synergy, additivity or antagonism of the combination of Example 3 with the anti-cancer drug [30]: + + + (Synergy relative to each agent alone (CI = 0.4-0.74 by Bliss Independence Model)) | synergy, additivity or antagonism of the combination of Example 3 with the anti-cancer drug [31]: + + (Slight synergy relative to each agent alone (CI = 0.75-0.9 by Bliss Independence Model)) | synergy, additivity or antagonism of the combination of Example 3 with the anti-cancer drug [32]: + + (Slight synergy relative to each agent alone (CI = 0.75-0.9 by Bliss Independence Model)) | synergy, additivity or antagonism of the combination of Example 3 with the anti-cancer drug [33]: + (Additive relative to each agent alone (CI = 0.9-1 by Bliss Independence Model and <0.9 by Highest Single Agent Model)) | synergy, additivity or antagonism of the combination of Example 3 with the anti-cancer drug [34]: + + (Slight synergy relative to each agent alone (CI = 0.75-0.9 by Bliss Independence Model)) | synergy, additivity or antagonism of the combination of Example 3 with the anti-cancer drug [35]: + + (Slight synergy relative to each agent alone (CI = 0.75-0.9 by Bliss Independence Model)) | synergy, additivity or antagonism of the combination of Example 3 with the anti-cancer drug [36]: + (Additive relative to each agent alone (CI = 0.9-1 by Bliss Independence Model and <0.9 by Highest Single Agent Model)) | synergy, additivity or antagonism of the combination of Example 3 with the anti-cancer drug [37]: + + (Slight synergy relative to each agent alone (CI = 0.75-0.9 by Bliss Independence Model)) | synergy, additivity or antagonism of the combination of Example 3 with the anti-cancer drug [38]: + (Additive relative to each agent alone (CI = 0.9-1 by Bliss Independence Model and <0.9 by Highest Single Agent Model)) | synergy, additivity or antagonism of the combination of Example 3 with the anti-cancer drug [39]: + (Additive relative to each agent alone (CI = 0.9-1 by Bliss Independence Model and <0.9 by Highest Single Agent Model)) | synergy, additivity or antagonism of the combination of Example 3 with the anti-cancer drug [40]: + + + (Synergy relative to each agent alone (CI = 0.4-0.74 by Bliss Independence Model)) | synergy, additivity or antagonism of the combination of Example 3 with the anti-cancer drug [41]: + (Additive relative to each agent alone (CI = 0.9-1 by Bliss Independence Model and <0.9 by Highest Single Agent Model))
